Data published in US9376442B2, “Methylpyrrolopyrimidinecarboxamides” (Takeda GmbH, priority 2009, dated 2016).

Biological target: T1, PDE5A1 (Homo sapiens, UniProt O76074)
T1 construct: from tissue; host or cells: human platelets from fresh donor blood (10,000 x g supernatant of sonicated lysate)
Assay: Inhibition of type 5 phosphodiesterase (PDE5) activity, modified SPA test with human platelet lysate
Format: biochemical
Conditions: 0.5 μM cGMP, read-out: PDE5A1 inhibitory values [measured as −log IC50 (mol/l)] (converted)
Procedure, shortened: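 Enzyme source is lysate from human platelets (10,000 g supernatant). Compound preincubated 5 min at 37° C in Tris pH 7.4 containing 1 μM motapizone and 10 nM of a PDE2 inhibitor. Reaction started with 0.5 μM cGMP ([3H] tracer) and run 15 min; SPA read-out, IC50 by non-linear regression.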

| IC50 [nM] | Compound |
| --- | --- |
| < 1 | CCc1ccc(OCC2CC2)c(-c2ncnc3c(C(=O)NC4CCN(C(=O)CO)CC4)c(C)[nH]c23)c1 [Example F91] |
| < 1 | Cc1[nH]c2c(-c3c(OCC4CC4)ccc4c3OCO4)ncnc2c1C(=O)N[C@H]1CC[C@H](NC(=O)[C@H](C)O)CC1 [Example F4, 4-[5-(cyclopropylmethoxy)-1,3-benzodioxol-4-yl]-N-(trans-4-{[(2S)-2-hydroxypropanoyl]amino}cyclohexyl)-6-methyl-5H-pyrrolo[3,2-d]pyrimidine-7-carboxamide] |
| < 1 | CC(=O)c1ccc(OCC2CC2)c(-c2ncnc3c(C(=O)NC4CCN(C(=O)CO)CC4)c(C)[nH]c23)c1 [Example F102, 4-[5-Acetyl-2-(cyclopropylmethoxy)phenyl]-N-[1-(hydroxyacetyl)piperidin-4-yl]-6-methyl-5H-pyrrolo[3,2-d]pyrimidine-7-carboxamide] |
| < 1 | COc1cc(OCC2CC2)c(-c2ncnc3c(C(=O)N[C@@H]4CCN(C(=O)CO)C[C@H]4O)c(C)[nH]c23)cc1F (relative stereo) [Example F89, 4-[2-(cyclopropylmethoxy)-5-fluoro-4-methoxyphenyl]-N-[(3R*,4R*)-3-hydroxy-1-(hydroxyacetyl)piperidin-4-yl]-6-methyl-5H-pyrrolo[3,2-d]pyrimidine-7-carboxamide] |
| 1 to 10 | Cc1[nH]c2c(-c3cc(F)ccc3OCC3CC3)ncnc2c1C(=O)N[C@@H]1CCN(C(=O)CO)C1 [Example F28, 4-[2-(Cyclopropylmethoxy)-5-fluorophenyl]-N-[(3R)-1-(hydroxyacetyl)pyrrolidin-3-yl]-6-methyl-5H-pyrrolo[3,2-d]pyrimidine-7-carboxamide] |
| < 1 | Cc1[nH]c2c(-c3ccc(F)cc3OCC3CC3)ncnc2c1C(=O)NC1CCN(C(=O)CO)CC1 [Example F11, 4-[2-(Cyclopropylmethoxy)-4-fluorophenyl]-N-(1-glycoloylpiperidin-4-yl)-6-methyl-5H-pyrrolo[3,2-d]pyrimidine-7-carboxamide] |
| < 1 | COc1cc(-c2ncnc3c(C(=O)N[C@H]4CC[C@@H](NC(=O)[C@H](C)O)CC4)c(C)[nH]c23)c(OCC2CC2)cc1F [Example F70, 4-[2-(Cyclopropylmethoxy)-4-fluoro-5-methoxyphenyl]-N-(cis-4-{[(2S)-2-hydroxypropanoyl]amino}cyclohexyl)-6-methyl-5H-pyrrolo[3,2-d]pyrimidine-7-carboxamide] |
| < 1 | Cc1[nH]c2c(-c3c(OCC4CC4)ccc4c3OCO4)ncnc2c1C(=O)N[C@H]1CC[C@@H](NC(=O)[C@H](C)O)CC1 [Example F6, 4-[5-(Cyclopropylmethoxy)-1,3-benzodioxol-4-yl]-N-(cis-4-{[(2S)-2-hydroxypropanoyl]amino}cyclohexyl)-6-methyl-5H-pyrrolo[3,2-d]pyrimidine-7-carboxamide] |
| < 1 | COc1cc(OCC2CC2)c(-c2ncnc3c(C(=O)N[C@@H]4CCN(C(=O)[C@H](C)O)C4)c(C)[nH]c23)cc1F [Example F116, 4-[2-(Cyclopropylmethoxy)-5-fluoro-4-methoxyphenyl]-N-{(3R)-1-[(2S)-2-hydroxypropanoyl]pyrrolidin-3-yl}-6-methyl-5H-pyrrolo[3,2-d]pyrimidine-7-carboxamide] |
| 1 to 10 | CCc1ccc(OCC2CC2)c(-c2ncnc3c(C(=O)NC4CN(C(=O)C(C)O)CC4O)c(C)[nH]c23)c1 (mixture of isomers) [Example F98, Diastereomeric mixture of 4-[2-(cyclopropylmethoxy)-5-ethylphenyl]-N{(3R,4R)-4-hydroxy-1-[(2S)-2-hydroxypropanoyl]pyrrolidin-3-yl}-6-methyl-5H-pyrrolo[3,2-d]pyrimidine-7-carboxamide and 4-[2-(cyclopropylmethoxy)-5-ethylphenyl]-N-{(3S,4S)-4-hydroxy-1-[(2S)-2-hydroxypropanoyl]pyrrolidin-3-yl}-6-methyl-5H-pyrrolo[3,2-d]pyrimidine-7-carboxamide] |
| < 1 | Cc1[nH]c2c(-c3ccc(F)cc3OCC3CC3)ncnc2c1C(=O)N[C@H]1CC[C@@H](NC(=O)CO)CC1 [Example F15, 4-[2-(cyclopropylmethoxy)-4-fluorophenyl]-N-[cis-4-(glycoloylamino)cyclohexyl]-6-methyl-5H-pyrrolo[3,2-d]pyrimidine-7-carboxamide] |

More lines, now with the values behind:

| Compound | IC50 [nM] |
| --- | --- |
| CCOC(=O)N[C@H]1CC[C@@H](NC(=O)c2c(C)[nH]c3c(-c4cc(F)c(OC)cc4OCC4CC4)ncnc23)CC1 [Example E141, Ethyl {cis-4-[({4-[2-(cyclopropylmethoxy)-5-fluoro-4-methoxyphenyl]-6-methyl-5H-pyrrolo[3,2-d]pyrimidin-7-yl}carbonyl)amino]cyclohexyl}carbamate] | < 1 |
| CCC(=O)N[C@H]1CC[C@H](NC(=O)c2c(C)[nH]c3c(-c4cc(OC)c(F)cc4OCC4CC4)ncnc23)CC1 [Example E107, 4-[2-(Cyclopropylmethoxy)-4-fluoro-5-methoxyphenyl]-6-methyl-N-[trans-4-(propionylamino)cyclohexyl]-5H-pyrrolo[3,2-d]pyrimidine-7-carboxamide] | < 1 |
| COCC(=O)N[C@H]1CC[C@H](NC(=O)c2c(C)[nH]c3c(-c4c(OCC5CC5)ccc5c4OCO5)ncnc23)CC1 [Example E7, 4-[5-(Cyclopropylmethoxy)-1,3-benzodioxol-4-yl]-N-{trans-4-[(methoxyacetyl)amino]cyclohexyl}-6-methyl-5H-pyrrolo[3,2-d]pyrimidine-7-carboxamide] | < 1 |
| CC(=O)N1CC[C@@H](NC(=O)c2c(C)[nH]c3c(-c4c(OCC5CC5)ccc5c4OCO5)ncnc23)C1 [Example E13, N-[(3R)-1-acetylpyrrolidin-3-yl]-4-[5-(cyclopropylmethoxy)-1,3-benzodioxol-4-yl]-6-methyl-5H-pyrrolo[3,2-d]pyrimidine-7-carboxamide] | < 1 |
| COCC(=O)N1CC[C@@H](NC(=O)c2c(C)[nH]c3c(-c4cc(F)c(OC)cc4OCC4CC4)ncnc23)C1 [Example E188, 4-[2-(Cyclopropylmethoxy)-5-fluoro-4-methoxyphenyl]-N-[(3R)-1-(methoxyacetyl)pyrrolidin-3-yl]-6-methyl-5H-pyrrolo[3,2-d]pyrimidine-7-carboxamide] | < 1 |
| CCOc1ccc(F)cc1-c1ncnc2c(C(=O)NC3CCN(C(=O)COC)CC3)c(C)[nH]c12 [Example E54, 4-(2-Ethoxy-5-fluorophenyl)-N-[1-(methoxyacetyl)piperidin-4-yl]-6-methyl-5H-pyrrolo[3,2-d]pyrimidine-7-carboxamide] | 1 to 10 |
| CC(=O)N1CC[C@@H](NC(=O)c2c(C)[nH]c3c(-c4cc(C)c(F)cc4OCC4CC4)ncnc23)[C@H](O)C1 (relative stereo) [Example E128, N-[(3R*,4R*)-1-Acetyl-3-hydroxypiperidin-4-yl]-4-[2-(cyclopropylmethoxy)-4-fluoro-5-methylphenyl]-6-methyl-5H-pyrrolo[3,2-d]pyrimidine-7-carboxamide] | < 1 |
| CCOc1ccc(F)cc1-c1ncnc2c(C(=O)NC3CCN(C(C)=O)CC3)c(C)[nH]c12 [Example E52, N-(1-acetylpiperidin-4-yl)-4-(2-ethoxy-5-fluorophenyl)-6-methyl-5H-pyrrolo[3,2-d]pyrimidine-7-carboxamide] | 1 to 10 |
| CC(=O)N[C@H]1CC[C@H](NC(=O)c2c(C)[nH]c3c(-c4cc(C(C)=O)ccc4OCC4CC4)ncnc23)CC1 [Example E166, N-[trans-4-(Acetylamino)cyclohexyl]-4-[5-acetyl-2-(cyclopropylmethoxy)phenyl]-6-methyl-5H-pyrrolo[3,2-d]pyrimidine-7-carboxamide] | < 1 |
| COCC(=O)N1CCC(NC(=O)c2c(C)[nH]c3c(-c4cc(C(C)=O)ccc4OCC4CC4)ncnc23)CC1 [Example E165, 4-[5-Acetyl-2-(cyclopropylmethoxy)phenyl]-N-[1-(methoxyacetyl)piperidin-4-yl]-6-methyl-5H-pyrrolo[3,2-d]pyrimidine-7-carboxamide] | < 1 |
| CC(=O)c1ccc(OCC2CC2)c(-c2ncnc3c(C(=O)NC4CCN(C(C)=O)CC4)c(C)[nH]c23)c1 [Example E163, 4-[5-Acetyl-2-(cyclopropylmethoxy)phenyl-]-N-(1-acetylpiperidin-4-yl)-6-methyl-5H-pyrrolo[3,2-d]pyrimidine-7-carboxamide] | < 1 |
| CCOc1ccc(C(F)(F)F)cc1-c1ncnc2c(C(=O)NC3CCN(C(=O)CC)CC3)c(C)[nH]c12 [Example E100, 4-[2-Ethoxy-5-(trifluoromethyl)phenyl]-6-methyl-N-(1-propanoylpiperidin-4-yl)-5H-pyrrolo[3,2-d]pyrimidine-7-carboxamide] | < 1 |
| CCOC(=O)N1CC[C@@H](NC(=O)c2c(C)[nH]c3c(-c4cc(OC)c(F)cc4OCC4CC4)ncnc23)C1 [Example E182, Ethyl (3R)-3-[({4-[2-(cyclopropylmethoxy)-4-fluoro-5-methoxyphenyl]-6-methyl-5H-pyrrolo[3,2-d]pyrimidin-7-yl}carbonyl)amino]pyrrolidine-1-carboxylate] | < 1 |
| COc1ccc(-c2ncnc3c(C(=O)NC4CCN(C(C)=O)CC4)c(C)[nH]c23)c(OCC2CC2)c1 [Example E55, N-(1-acetylpiperidin-4-yl)-4-[2-(cyclopropylmethoxy)-4-methoxyphenyl]-6-methyl-5H-pyrrolo[3,2-d]pyrimidine-7-carboxamide] | < 1 |
| CC(=O)N1CCC(NC(=O)c2c(C)[nH]c3c(-c4cc(C)c(F)cc4OCC4CC4)ncnc23)CC1 [Example E119, N-(1-Acetylpiperidin-4-yl)-4-[2-(cyclopropylmethoxy)-4-fluoro-5-methylphenyl]-6-methyl-5H-pyrrolo[3,2-d]pyrimidine-7-carboxamide] | < 1 |
